# Experimental data from publication PMC2391111 (British Journal of Cancer, 2008).
# Like-named read-outs stand apart in the source and are kept apart here.
# Columns and labels:
# [1] = Plasma pharmacokinetics of bortezomib and docetaxel given in combination; format: in vivo, patients; details: for AUC(0-t) / AUC(0-inf) / clearance / half-life / Vd: human, plasma, intravenous; for AUC(0-t): read-out: AUC0–t, mean (%CV); for AUC(0-inf): read-out: AUC0–∞∞, mean (%CV); for clearance: read-out: CL, mean (%CV) (converted)
# Source text: (§1) In patients participating in pharmacokinetic analysis, blood samples were taken on day 1, cycle 1, to determine the plasma concentration time profile of docetaxel and bortezomib. Samples were collected immediately before docetaxel infusion and bortezomib injection and at prespecified intervals on day 1. Samples were also taken for bortezomib pharmacokinetic analysis on day 11 of cycle 1. Whole-blood samples were taken for pharmacodynamic analysis using 20S proteasome inhibition assay ([Lightcap et al, 2000]) immediately before and 1 h after bortezomib dosing on days 1 and 11 of cycles 1 and 2, and on days 2 and 12 of cycle 1, in a subset of patients participating in pharmacokinetic analysis.
# 20S proteasome = 20S proteasome (Homo sapiens, UniProt P28074); assay: 20S proteasome inhibition assay in whole blood; format: in vivo, patients; details: for Inhibition of 20S proteasome activity: whole blood
# Source text: as §1
# [2] = test system: HER2-positive breast cancer cell lines; design: method as in Cardoso et al, 2006; details: HER2-positive cells, four cell lines ref Cardoso et al, 2006; cited from earlier work
# [3] = 1 mg, bortezomib 1.0 mg m^−2 (n=5), day 1, with docetaxel
# [4] = 1 mg, bortezomib 1.0 mg m^−2 (n=5), day 11
# [5] = 1.3 mg, bortezomib 1.3 mg m^−2 (n=3), day 1, with docetaxel
# [6] = 1.3 mg, bortezomib 1.3 mg m^−2 (n=3), day 11
# [7] = 1.5 mg, bortezomib 1.5 mg m^−2 (n=6), day 11
# [8] = 1.5 mg, bortezomib 1.5 mg m^−2 (n=8), day 1, with docetaxel
# Chain of 20S proteasome (P28074 60-263): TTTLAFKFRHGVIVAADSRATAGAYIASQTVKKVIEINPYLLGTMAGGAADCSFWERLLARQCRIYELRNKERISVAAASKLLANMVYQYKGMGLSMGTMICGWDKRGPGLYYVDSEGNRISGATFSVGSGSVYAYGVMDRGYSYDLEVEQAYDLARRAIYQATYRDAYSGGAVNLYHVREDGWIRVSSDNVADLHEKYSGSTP
smiles,measurement,setting,value
CC(C)C[C@H](NC(=O)[C@H](Cc1ccccc1)NC(=O)c1cnccn1)B(O)O [Bortezomib],"C0, mean (%CV)","[1]; bortezomib 1.0 mg m^−2 (n=5), day 1, with docetaxel",208 (34) ng ml^−1
same,"C0, mean (%CV)","[1]; bortezomib 1.0 mg m^−2 (n=5), day 11",552 (148) ng ml^−1
same,"C0, mean (%CV)","[1]; bortezomib 1.3 mg m^−2 (n=3), day 1, with docetaxel",137 (54) ng ml^−1
same,"C0, mean (%CV)","[1]; bortezomib 1.3 mg m^−2 (n=3), day 11",237 (59) ng ml^−1
same,"C0, mean (%CV)","[1]; bortezomib 1.5 mg m^−2 (n=6), day 11",153 (41) ng ml^−1
same,"C0, mean (%CV)","[1]; bortezomib 1.5 mg m^−2 (n=8), day 1, with docetaxel",268 (71) ng ml^−1
same,AUC(0-t),[1]; [3],43 ng·h/mL
same,AUC(0-inf),[1]; [3],54.6 ng·h/mL
same,clearance,[1]; [3],562 mL/min
same,half-life,"[1]; 1 mg, bortezomib 1.0 mg m^−2 (n=5), day 1, with docetaxel, read-out: T½,z, mean (%CV) (converted)",9.15 h
same,Vd,"[1]; 1 mg, bortezomib 1.0 mg m^−2 (n=5), day 1, with docetaxel, read-out: Vss, mean (%CV)",222 L
same,Vd,"[1]; 1 mg, bortezomib 1.0 mg m^−2 (n=5), day 1, with docetaxel, read-out: Vz, mean (%CV)",408 L
same,AUC(0-t),[1]; [4],112 ng·h/mL
same,AUC(0-inf),[1]; [4],133 ng·h/mL
same,clearance,[1]; [4],225 mL/min
same,half-life,"[1]; 1 mg, bortezomib 1.0 mg m^−2 (n=5), day 11, read-out: T½,z, mean (%CV) (converted)",12.2 h
same,Vd,"[1]; 1 mg, bortezomib 1.0 mg m^−2 (n=5), day 11, read-out: Vss, mean (%CV)",151 L
same,Vd,"[1]; 1 mg, bortezomib 1.0 mg m^−2 (n=5), day 11, read-out: Vz, mean (%CV)",237 L
same,half-life,"[1]; 1 mg, bortezomib 1.0 mg m^−2, day 1, patients with measurable plasma concentrations at 24 h post-dose (n=2), read-out: T½,z 24-h, mean (converted)",15.1 h
same,half-life,"[1]; 1 mg, bortezomib 1.0 mg m^−2, day 11, patients with measurable plasma concentrations at 24 h post-dose (n=4), read-out: T½,z 24-h, mean (converted)",14.3 h
same,AUC(0-t),[1]; [5],35.5 ng·h/mL
same,AUC(0-inf),[1]; [5],49 ng·h/mL
same,clearance,[1]; [5],850 mL/min
same,half-life,"[1]; 1.3 mg, bortezomib 1.3 mg m^−2 (n=3), day 1, with docetaxel, read-out: T½,z, mean (%CV) (converted)",14.2 h
same,Vd,"[1]; 1.3 mg, bortezomib 1.3 mg m^−2 (n=3), day 1, with docetaxel, read-out: Vss, mean (%CV)",596 L
same,Vd,"[1]; 1.3 mg, bortezomib 1.3 mg m^−2 (n=3), day 1, with docetaxel, read-out: Vz, mean (%CV)",924 L
same,AUC(0-t),[1]; [6],90.5 ng·h/mL
same,AUC(0-inf),[1]; [6],111 ng·h/mL
same,clearance,[1]; [6],350 mL/min
same,half-life,"[1]; 1.3 mg, bortezomib 1.3 mg m^−2 (n=3), day 11, read-out: T½,z, mean (%CV) (converted)",12.2 h
same,Vd,"[1]; 1.3 mg, bortezomib 1.3 mg m^−2 (n=3), day 11, read-out: Vss, mean (%CV)",237 L
same,Vd,"[1]; 1.3 mg, bortezomib 1.3 mg m^−2 (n=3), day 11, read-out: Vz, mean (%CV)",374 L
same,half-life,"[1]; 1.3 mg, bortezomib 1.3 mg m^−2, day 1, patients with measurable plasma concentrations at 24 h post-dose (n=2), read-out: T½,z 24-h, mean (converted)",18.1 h
same,half-life,"[1]; 1.3 mg, bortezomib 1.3 mg m^−2, day 11, patients with measurable plasma concentrations at 24 h post-dose (n=2), read-out: T½,z 24-h, mean (converted)",17.1 h
same,AUC(0-t),[1]; [7],103 ng·h/mL
same,AUC(0-inf),[1]; [7],161 ng·h/mL
same,clearance,[1]; [7],267 mL/min
same,half-life,"[1]; 1.5 mg, bortezomib 1.5 mg m^−2 (n=6), day 11, read-out: T½,z, mean (%CV) (converted)",23.6 h
same,Vd,"[1]; 1.5 mg, bortezomib 1.5 mg m^−2 (n=6), day 11, read-out: Vss, mean (%CV)",391 L
same,Vd,"[1]; 1.5 mg, bortezomib 1.5 mg m^−2 (n=6), day 11, read-out: Vz, mean (%CV)",538 L
same,AUC(0-t),[1]; [8],69 ng·h/mL
same,AUC(0-inf),[1]; [8],85.3 ng·h/mL
same,clearance,[1]; [8],615 mL/min
same,half-life,"[1]; 1.5 mg, bortezomib 1.5 mg m^−2 (n=8), day 1, with docetaxel, read-out: T½,z, mean (%CV) (converted)",6.9 h
same,Vd,"[1]; 1.5 mg, bortezomib 1.5 mg m^−2 (n=8), day 1, with docetaxel, read-out: Vss, mean (%CV)",209 L
same,Vd,"[1]; 1.5 mg, bortezomib 1.5 mg m^−2 (n=8), day 1, with docetaxel, read-out: Vz, mean (%CV)",282 L
same,half-life,"[1]; 1.5 mg, bortezomib 1.5 mg m^−2, day 1, patients with measurable plasma concentrations at 24 h post-dose (n=2), read-out: T½,z 24-h, mean (converted)",17.8 h
same,half-life,"[1]; 1.5 mg, bortezomib 1.5 mg m^−2, day 11, patients with measurable plasma concentrations at 24 h post-dose, read-out: T½,z 24-h, mean (converted)",23.6 h
same,half-life,"[1]; following the first dose, patients with measurable plasma concentrations at 24 h post-dose, read-out: Terminal half-lives, mean values across dose levels",15 to 18 h
same,"Percent 20S proteasome inhibition, cycle 2 versus cycle 1",20S proteasome; all dose groups,greater in cycle 2 than cycle 1
same,Inhibition of 20S proteasome activity,20S proteasome; 1 h post-dose,46.14–88.80%
same,Inhibition of 20S proteasome activity,20S proteasome; immediately prior to the dose on day 11,10.93–51.18%
same,Effect on the effect of trastuzumab,[2],acts synergistically
